Measured values from US20240210394A1, “MICROORGANISM CAPTURE FROM ANTIMICROBIAL-CONTAINING SOLUTION” (MOMENTUM BIOSCIENCE LIMITED, priority 2019, published 2024).

Assays:
S. aureus [1] = experiment: Blood culture time to positivity (flip time), bead rescue vs no-rescue control; format: cell-based; details: for Flip time: Cefepime 164 mg/L blood; for Difference (Days) compared to BE / Flip time in Days: Vancomycin 500 mg/L blood, antibiotic-labelled line = BC control without beads; for Flip time in Days: bead rescue with named bead type; for Bead Rescue Flip time / Control Flip time in Days: antibiotic 500 mg/L blood
Procedure: An overnight culture of test organism was prepared in blood/broth medium (50:50 blood:broth medium from a BioMerieux SA culture bottle).
Ten-fold serial dilutions of overnight culture was prepared in blood/broth as required.
Antibiotic (abx) was added to whole human blood (in citrate-phosphate-dextrose, CPD, an anticoagulant) at required level.
Whole blood was used as the no-antibiotic control.
Test dilution(s) of organism was added to blood+antibiotic or blood only at 10 μL per mL of blood (sufficient prepared for experiment requirements). 100 μL plate count sample was taken (TO sample).
The inoculated samples were incubated at 37° C. (static) for 2-hour. 100 μL plate count sample was taken (T2 sample).
For the control, 5 mL of spiked blood+abx or blood only was added to blood culture bottles (BioMerieux SA culture bottle) using a vial adapter (West Pharmaceutical Services, Inc. PA, US) and incubated in the automated blood culture cabinet (adapter removed).
For the ‘rescue’ test, 5 mL of spiked blood+abx or blood only was treated with Momentum Capture Beads (Streptavidin-coated, −300 nm beads, Bio estapor, Merk Cat #BE-M 08/0.3) as below: • Momentum Capture Beads diluted in Detergent-free Microbial Binding Buffer (DMBB—Tris+NaCl)—50 μL beads:700 μL DMBB per clean-up • 750 μL of diluted beads added to 50 mL conical centrifuge tube • 5 mL of broth medium added to tube • 5 mL of spiked blood+abx or blood only added to tube • Incubate on ITL TherMix (Integrated Technologies Ltd. Kent, UK), 32.5° C./30 min/1000 rpm—ramped speed protocol • Magnetise on V&P magnet (V&P scientific Inc, CA, US) for 5 min then remove supernatant • Resuspend beads in 1 mL Detergent-free Wash Buffer (DWB—Tris+NaCl) off magnet and transfer to 2 mL Eppendorf flip-top tube on DynaMag-2 magnet (Thermo Fisher Scientific, Life Technologies Ltd. Paisley, UK) • Magnetise for 5 min then remove supernatant • Resuspend beads in 1 mL DWB off magnet then replace on DynaMag-2 magnet • Magnetise for 5 min then remove supernatant • Resuspend beads in 1 mL DWB, add to a fresh, unused blood culture bottle (BioMerieux SA culture bottle) containing standard blood culture growth medium using a vial adapter, and start incubation (adapter removed). • Blood culture bottles are incubated in the automated blood culture cabinet (BacT/ALERT BioMerieux) which records time to positivity. The “Flip” time is when a bottle turns positive as determined by the automated blood culture cabinet. • “Flip” time of each bottle is recorded. • Plate counts (Total Viable Count TVC) are recorded.
(§1) Day 1: Prepare overnight culture of test organism in blood/broth medium (50:50 blood:broth) and incubate at 37° C. in a shaking incubator.
Day 2: Prepare ten-fold serial dilution of overnight culture in blood/broth as required • Antibiotic added to whole blood (defibrinated horse blood) at required level • Whole blood as no-antibiotic control • Test dilution(s) of organism added to blood+antibiotic or blood only at 10 μL per mL of blood (sufficient prepared for experiment requirements) • 100 μL plate count sample taken (TO sample) • 2-hour incubation at 37° C. (static), to mimic organism exposure to antimicrobials in the patient • 100 μL plate count sample taken (T2 sample) • 5 mL of spiked blood+abx or blood only added to blood culture bottle (using vial adapter) and incubation started (adapter removed) • 5 mL of spiked blood+abx or blood only (from same source) treated with Momentum Capture Beads as below: • 1. Momentum Capture Beads diluted in Detergent-free Microbial Binding Buffer (DMBB)—50 μL beads:700 μL DMBB per clean-up • 2. 750 μL of diluted beads added to 50 mL conical centrifuge tube • 3. 5 mL of transfer medium added to tube • 4. 5 mL of spiked blood+abx or blood only added to tube • 5.

E. coli [2] = experiment: as above; format: cell-based; details: Cefepime 164 mg/L blood; for Flip time: Bead rescue; for Flip time in Days: Control (FA plus bottle)
Procedure: as §1
Day 2: Prepare ten-fold serial dilution of overnight culture in blood/broth as required and incubate at 37° C. for 2 h for outgrowth.
Add 5 mL of spiked blood+beads (set 1) and 5 mL of spiked blood/Abx+beads (set 3) to blood culture bottles (BioMerieux SA culture bottle) using a vial adapter (West Pharmaceutical Services, Inc. PA, US).
Remove the adaptor and incubate the blood culture bottles in the automated blood culture cabinet (BacT/ALERT BioMerieux) for up to 5 days.
Record the “Flip” time of each bottle or bottle result at the end of 5 days incubation. The “Flip” time is when a bottle turns positive as determined by the automated blood culture cabinet, which records time to positivity.
Day 1: Prepare overnight culture of test organism in blood/broth medium (50:50 blood:broth) and incubate at 37° C. (or 30° C. for C. neoformans) in a shaking incubator.
(or 30° C. for C. neoformans) for 2 h for outgrowth. • Antibiotic added to whole blood (defibrinated horse blood) at required level • Whole blood as no-antibiotic control • Test dilution(s) of organism added to blood+antibiotic or blood only at 10 μL per mL of blood (sufficient prepared for experiment requirements) • 100 μL plate count sample taken (TO sample) • 2-hour incubation (static) at 37° C. (or 30° C. for C. neoformans) • 100 μL plate count sample taken (T2 sample) • 5 mL of spiked blood+abx or blood only added to blood culture bottle (using vial adapter) and incubation started (adapter removed) • 5 mL of spiked blood+abx or blood only (from same source) treated with Momentum Capture Beads as below: • 1. Capture Beads diluted in the relevant Capture Reagent—50 μL beads:700 μL capture reagent per clean-up • 2. 750 μL of diluted beads added to 50 mL conical centrifuge tube • 3. 5 mL of transfer medium added to tube • 4. 5 mL of spiked blood+abx or blood only added to tube • 5. […] Magnetise on V&P magnet for 10 min then remove supernatant • 7. Resuspend beads in 1 mL Detergent-free Wash Buffer (DWB) off magnet and transfer to 2 mL Eppendorf flip-top tube on DynaMag-2 magnet • 8. Magnetise for 3 min then remove supernatant • 9. Resuspend beads in 1 mL Detergent-free Wash Buffer (DWB) off magnet then replace on DynaMag-2 magnet • 10. Magnetise for 3 min then remove supernatant • 11. Resuspend beads in 1 mL DWB, add to new blood culture bottle (using vial adapter) and start incubation (adapter removed)
Momentum Capture Beads diluted in the relevant Capture Reagent—50 μL beads:700 μL capture reagent per clean-up • 2. 750 μL of diluted beads added to 50 mL conical centrifuge tube • 3. 5 mL of transfer medium added to tube • 4. 5 mL of spiked blood+abx or blood only added to tube • 5. […] Magnetise on V&P magnet for 10 min then remove supernatant • 7. Resuspend beads in 1 mL Detergent-free Wash Buffer (DWB) off magnet and transfer to 2 mL Eppendorf flip-top tube on DynaMag-2 magnet • 8. Magnetise for 3 min then remove supernatant • 9. Resuspend beads in 1 mL Detergent-free Wash Buffer (DWB) off magnet then replace on DynaMag-2 magnet • 10. Magnetise for 3 min then remove supernatant • 11. Resuspend beads in 1 mL DWB, add to an unused blood culture bottle (BioMerieux FA+culture bottle) using vial adapter and start incubation (adapter removed)

E. coli [3] = details: cited from earlier work
Klebsiella pneumoniae = details: K. pneumoniae; cited from earlier work
Pseudomonas aeruginosa = details: P. aeruginosa; cited from earlier work
S. aureus [4] = details: cited from earlier work
S. aureus [5] = experiment: Antibiotic breakpoint experiment (plate counts at 0, 2.5 and 5 hours); format: cell-based; details: two different strains of S. aureus, every time point
Procedure: To determine a starting point in terms of antibiotic concentration and microbial load for subsequent experiments. Antibiotic concentration ranges were tested to find appropriate breakpoints for use in experiments. A range of antibiotic concentrations were tested against a given microbial load to determine the concentration at which growth was inhibited but the microorganisms were not killed. This was determined by plate counts at intervals of 0, 2.5 and 5 hours.
• 1. Day 1: Prepare an overnight culture of the test organism in 3 mL of blood/broth solution (1.5 mL defibrinated Horse blood: 1.5 mL transfer Medium). • 2. Day 2: Dissolve antibiotic in required diluent to prepare a suitable stock solution and prepare a dilution series in Nuclease-free Water to cover a final concentration range of 100 to 0.001 and Omg/L. • 3. Dilute the overnight culture of the microorganism to the required point in pre-warmed blood/broth solution. This may require determining for each organism/antibiotic combination, but as a starting dilution 10-4 will be used (giving a final concentration in the sample of 10-5). • 4. Aliquot 980 μL of pre-warmed defibrinated horse blood into the required number of 2 mL flip-top tube. • 5. […]
The concentrations determined by this protocol were used in the following examples unless stated otherwise. […]

CO/N=C(\C(=O)N[C@@H]1C(=O)N2C(C(=O)[O-])=C(C[N+]3(C)CCCC3)CS[C@H]12)c1csc(N)n1 [Cefepime]
Flip time (S. aureus [1]; Bead rescue, 125000 cfu/5 mL blood): 0.46 days | Flip time (S. aureus [1]; Bead rescue, 750000 cfu/5 mL blood): 0.39 days | Flip time (S. aureus [1]; Control (FA plus bottle), 125000 cfu/5 mL blood): 2.69 days | Flip time (S. aureus [1]; Control (FA plus bottle), 750000 cfu/5 mL blood): 2.49 days | Flip time (E. coli [2]; 125000 cfu/5 mL blood): 0.47 days | Flip time (E. coli [2]; 1250000 cfu/5 mL blood): 0.38 days | Flip time in Days (E. coli [2]; 125000 cfu/5 mL blood): Neg | Flip time in Days (E. coli [2]; 1250000 cfu/5 mL blood): Neg | MIC (E. coli [3]): ≤1 µg/mL | MIC (Klebsiella pneumoniae): ≤1 µg/mL | MIC (Pseudomonas aeruginosa): ≤1 µg/mL | MIC (S. aureus [4]): ≤4 µg/mL

CN[C@H](CC(C)C)C(=O)N[C@H]1C(=O)N[C@@H](CC(N)=O)C(=O)N[C@H]2C(=O)N[C@H]3C(=O)N[C@H](C(=O)N[C@H](C(=O)O)c4cc(O)cc(O)c4-c4cc3ccc4O)[C@H](O)c3ccc(c(Cl)c3)Oc3cc2cc(c3O[C@@H]2O[C@H](CO)[C@@H](O)[C@H](O)[C@H]2O[C@H]2C[C@](C)(N)[C@H](O)[C@H](C)O2)Oc2ccc(cc2Cl)[C@H]1O [Vancomycin]
No-rescue blood culture control result (S. aureus [1]; Example 23, S. aureus in blood containing 500 mg/L Vancomycin): negative after 5 days | No-rescue blood culture controls result (S. aureus [1]; Example 24, S. aureus in blood containing 500 mg/L Vancomycin): negative | Difference (Days) compared to BE (S. aureus [1]; 20000 Cfu/mL): Negative | Flip time in Days (S. aureus [1]; 20000 Cfu/mL): Negative | Difference (Days) compared to BE (S. aureus [1]; 35760 Cfu/mL): Negative | Flip time in Days (S. aureus [1]; 35760 Cfu/mL): Negative | Difference (Days) compared to BE (S. aureus [1]; 200000 Cfu/mL): Negative | Flip time in Days (S. aureus [1]; 200000 Cfu/mL): Negative | Difference (Days) compared to BE (S. aureus [1]; 357600 Cfu/mL): Negative | Flip time in Days (S. aureus [1]; 357600 Cfu/mL): Negative | Bead Rescue Flip time (S. aureus [1]; 1000 cfu/5 mL Blood): 1.15 days | Control Flip time in Days (S. aureus [1]; 1000 cfu/5 mL Blood): Neg | Bead Rescue Flip time (S. aureus [1]; 100000 cfu/5 mL Blood): 0.66 days | Control Flip time in Days (S. aureus [1]; 100000 cfu/5 mL Blood): Neg | Bead Rescue Flip time (S. aureus [1]; 1000000 cfu/5 mL Blood): 0.61 days | Control Flip time in Days (S. aureus [1]; 1000000 cfu/5 mL Blood): Neg | Growth in antibiotic dilution series (breakpoint experiment) (S. aureus [5]): grew in every dilution
